Reference: patent publication US20230341404A1, “TARGETING STROMA-CANCER INTERACTIONS IN CANCER” (The Regents of the University of California, priority 2022, published 2023)
Residues, ends and D or L forms follow the SMILES beside them. *: point of attachment. Cbz = O=C(OCc1ccccc1)*

What was measured:
KPC or KC cells [1] = assay: uptake of [3H] from [3H]-proline-labelled ECM; type: cell-based, mouse; conditions: LG medium, 24 h
Description: To assess the effects of Col I on metabolism, Applicant labeled wild-type and R/R fibroblasts with [^3H]-proline or [U-^13C]-glutamine for five days, during which period the cells coated the plates with Col I-containing ECM. After decellularization, KPC or KC cells and variants thereof were plated and cultured for 24 h in LG medium. The uptake of [^3H] in cells plated on wild-type ECM was dependent on macropinocytosis, as indicated by sensitivity to macropinocytosis inhibitors (EIPA (an NHE1 inhibitor), IPI549 (a PI3Kγ inhibitor) or MBQ-167 (a CDC42 and RAC inhibitor)) and to the knockdown of NHE 1 or SDC1, and enhancement by the ULK1 inhibitor MRT68921 (MRT)^11.
Wild-type or R/R fibroblasts were seeded on 6, 12 or 96-well plates. One day after plating, cells were switched into DMEM (with pyruvate) with 10% dialysed FBS supplemented with or without 500 μM [^3H]-proline or [U-^[…]]-glutamine and 100 μM vitamin C. Cells were cultured for five days with renewal of the medium every 24 h. Then fibroblasts were removed by washing in 1 ml or 500 μl or 100 μl per well PBS with 0.5% (v/v) Triton X-100 and 20 mM NH4OH. The ECM was washed five times with PBS before cancer cell plating. The following day, cancer cells were switched into the indicated medium for 24 or 72 h.

PDAC cells = assay: cell viability assay (Cell Counting Kit-8) on wild-type or R/R ECM; type: cell-based, mouse and human; conditions: LG medium
Description: Cells were plated in 96-well plates coated with or without ECM at a density of 3,000 cells (MIA, 1305) or 1,500 cells (KPC or KC) per well and incubated overnight before treatment. 7rh (500 nM), ML120B (10 μM), EIPA (10.5 μM), IPI549 (600 nM), MBQ-167 (500 nM), MRT68921 (600 nM) or ML385 (10 μM), or their combinations, were added to the wells in the presence of complete medium (CM), LG medium or LQ medium for 72 h. Cell viability was determined with a Cell Counting Kit-8 assay (Glpbio). Optical density was read at 450 nm and analysed using a microplate reader with SoftMax 6.5 software (FilterMax F5, Molecular Devices). For all experiments, the medium was replaced every 24 h.

KPC cells = assay: intrasplenic PDAC cell implantation (liver tumours); type: in vivo, mouse; conditions: 10 mg kg^−1 EIPA intraperitoneal every other day
Description: FIGS. 14A-14J: Effect of macropinocytosis and mitochondria on Col I-controlled PDAC cell growth. FIG. 14A, Bromodeoxyuridine (BrdU) incorporation into KPC cells plated on ECM mixtures produced by R/R and WT fibroblasts (R:W). Scale bars, 10 μm. FIG. 14B, FIG. 14C, Paren. and IKKα^KD KPC (FIG. 14B) or KC (FIG. 14C) cells were plated −/+ WT or R/R ECM and incubated in LG −/+ indicated reagents. Viable cells were measured after 3 days and depicted relative to untreated plastic-plated Paren. cells. (FIG. 14C). IKKα KD efficiency is shown on the right (FIG. 14B). FIGS. D, E, Viable 1305 (FIG. 14D) or MIA PaCa-2 (FIG. 14E) cells plated as above and incubated in LG −/+ EIPA. f, Viable Paren. and E79Q KPC cells plated, treated, and presented as above. […] Total viable cells were measured as above and are presented relative to the untreated cells. FIG. 14H, Mitochondrial ATP production calculated from FIG. 6B. […] Quantification of the SR positive area is shown on the left. […] Statistical significance determined by two-tailed t-test. […]
Three-month-old Col I^WT or Col I^r/r mice were treated with or without an oral gavage of 25% CCl4 in corn oil twice a week for two weeks. […] Mice were analysed 14 days after treatment with or without 10 mg kg^−1 EIPA (Sigma) by intraperitoneal injection every other day.

DDR1 = assay: immunoblot of DDR1 in KPC cells plated on wild-type or R/R ECM; type: cell-based, mouse; conditions: LG medium, 24 h
Description: FIGS. 4A-4G: The Col I—DDR1—NRF2 axis controls macropinocytosis and mitochondrial biogenesis. FIG. 4A, Representative images and quantification of mitochondria and macropinocytosis in TMR-DEX-incubated parental and variant KPC cells grown on wild-type ECM. FIG. 4B, Immunoblot analysis of the indicated proteins in KPC cells grown on plastic or wild-type or R/R ECM and incubated in LG or LQ medium for 24 h. The effects of wild-type and R/R ECM on DDR1 signaling are summarized on the right. mito., mitochondria; pDDR1, phosphorylated DDR1. FIG. 4C, Representative images and quantification of mitochondria and macropinocytosis in TMR-DEX-incubated parental and NRF2^E79Q (E79Q) KPC cells plated on wild-type or R/R ECM in LG medium with or without 7rh or ML120B for 24 h. […] Statistical significance determined by two-tailed t-test. […]
The expression and function of DDR1 vary in different cancer stages and types^18-21. […] Unlike DDR1 in triple-negative breast cancer (TNBC)^20, no shedding of the DDR1 extracellular domain was detected (FIG. 12F). […]
Preparation of protein samples from cells and tissues, immunoblotting and immunoprecipitation were performed as before^10, 30. Immunoreactive bands were detected by an automatic X-ray film processor or a KwikQuant Imager.

KPC or KC cells [2] = assay: luminescence ATP detection assay; type: cell-based, mouse; conditions: cells cultured on wild-type ECM, 24 h
Description: KPC or KC cells were grown on 96-well plates coated with or without the indicated ECM in the presence of 100 μl CM or LG medium with or without EIPA (10.5 μM), MBQ-167 (500 nM), MRT68921 (600 nM) or their combinations for 24 h. Then the cell number was measured. Intracellular ATP was determined with a luminescence ATP detection assay system (PerkinElmer) according to the manufacturer's protocol. Finally, luminescence was measured and normalized to cell number.

KPC or KC cells [3] = assay: L-amino acid assay; type: cell-based, mouse; conditions: cells cultured on wild-type ECM, LG medium, 24 h
Description: KPC or KC cells were grown on six-well plates coated with or without the indicated ECM in the presence of […] LG medium with or without EIPA (10.5 μM), MRT68921 (600 nM) or their combinations for 24 h. Total amounts of free 1-amino acids (except for glycine) were measured using an L-Amino Acid Assay Kit (Colorimetric, […]) according to the manufacturer's protocol. The concentration of 1-amino acids was calculated within samples by comparing the sample optical density to the standard curve and normalized to cell number.

[4] = IKKα^KD cells versus parental cells
[5] = parental cells on wild-type ECM, 7rh 500 nM, ML120B 10 μM, ML385 10 μM, EIPA 10.5 μM, IPI549 600 nM, MBQ-167 500 nM

Row | Structure (SMILES) | uptake of [3H] (KPC or KC cells [1]; cells plated on R/R ECM) | uptake of [3H] (KPC or KC cells [1]; cells plated on wild-type ECM) | cell growth (viable cells) (PDAC cells; [4]) | cell growth (viable cells) (PDAC cells; parental cells on R/R ECM) | cell growth (viable cells) (PDAC cells; [5]) | other results
1 | CCn1c2ccccc2c2cc(-n3nncc3-c3ccccc3)ccc21 (racemic) [MBQ-167] | unaffected | sensitivity | more sensitive | did not decrease the low growth | decreased growth on wild-type ECM | –
2 | CCN(c1nc(N)c(C(=O)NC(=N)N)nc1Cl)C(C)C [EIPA] | unaffected | sensitivity | more sensitive | did not decrease the low growth | decreased growth on wild-type ECM | tumour growth (KPC cells; Col I^r/r livers): had little effect; tumour growth (KPC cells; wild-type livers): inhibited tumour growth
3 | C[C@H](NC(=O)c1c(N)nn2cccnc12)c1cc2cccc(C#Cc3cnn(C)c3)c2c(=O)n1-c1ccccc1 [IPI549] | unaffected | sensitivity | more sensitive | did not decrease the low growth | decreased growth on wild-type ECM | –
4 | CC(C)C[C@@H](C=O)NC(=O)[C@H](CC(C)C)NC(=O)[C@H](CC(C)C)NC(=O)OCc1ccccc1 [MG132] (Cbz-Leu-Leu-Leu-aldehyde) | – | – | – | – | – | DDR1 expression (DDR1): rescued DDR1 expression
5 | COc1c(Cl)cc2c([nH]c3cnccc32)c1NC(=O)c1cccnc1C [ML120B] | – | – | – | did not decrease the low growth | decreased growth on wild-type ECM | cell growth (viable cells) (PDAC cells; NRF2(E79Q)-expressing cells): resistant
6 | Cc1ccccc1C(=O)N1CCc2cc(-c3nc(NC(=O)Cc4ccc5c(c4)OCO5)sc3C)ccc21 [ML385] | – | – | – | did not decrease the low growth | decreased growth on wild-type ECM | –
7 | CN1CCc2cc(Nc3ncc(C4CC4)c(NCCCNC(=O)C4CCC4)n3)ccc2C1 [MRT68921] | – | enhancement | – | – | – | levels of ATP (KPC or KC cells [2]): further increased; amino acid content (KPC or KC cells [3]): further increased
